Patent US8404619B2, “Particulate plant treatment composition” (Maruo Calcium Company Limited, priority 2005, dated 2013)

Experiments:
Assay type in all cases: in vivo
[1] = test system: pear tree (Housui); assay: reducing water core and improving fruit quality, spray on pear tree
Protocol: The effects of a quality improver in reducing water core and improving fruit quality were evaluated using a pear tree (Housui).
That is, the quality improver of Example 1 was sprayed on the pear tree at the polyvalent metal concentrations shown in Table 14 over four times from late April (ten-day interval) and two times from middle July (ten-day interval). Each treatment was conducted on each branch by spraying with a backpack sprayer.
The evaluation was carried out on 30 randomly selected fruits. The degree of water core was evaluated by examining three cross sections of the stalk cavity part, the equatorial part, and the calyx end part of the fruit based on a 4-point scale (none=0, mild=1, moderate=2, severe=3). The result of the evaluation was expressed by the following equation: water core index={(1×the number of fruits with mild water core)+(2×the number of fruits with moderate water core)+(3×the number of fruits with severe water core)}/(the number of fruits examined). The fruit with a water core index of 2 or 3 was considered as a seriously damaged fruit. The ground color of fruit skin was determined using a color chart for Japanese pear based on a scale of 1 (immature) to 6 (overmature). The sugar content was determined using a sugar refractometer. The dirt on a fruit surface was evaluated by a ratio of the surface area soiled whitish to the total surface area of the fruit on a scale of 1 to 5 (not soiled=1, slightly soiled=2, a little soiled=3, moderately soiled=4, much soiled=5). The phytotoxicity was evaluated on a scale of 1 to 5 (normal=1, slightly damaged=2, a little damaged=3, moderately damaged=4, much damaged=5).
The examinations were carried out in the same manner as in Application Example 94 except that the quality improvers of Examples 2 to 4, 6 to 7, 12, 14, 17 to 18, and Comparative Examples 1 to 4 were used instead of the quality improver of Example 1.

[2] = test system: grape tree (Pione); assay: reducing fruit-cracking and improving fruit quality, spray on grape tree
Protocol: (§1) The effects of a quality improver in reducing fruit-cracking and improving fruit quality were evaluated using a grape tree (Pione). That is, the quality improver of Example 1 was sprayed on the grape tree at the polyvalent metal concentrations shown in Table 8 over four times from early July (two-week interval). Each treatment was conducted on each branch by spraying with a backpack sprayer.
The evaluation was carried out on 20 randomly selected clusters. The number of fruit-cracking was expressed as the number of grains with cracking in a cluster examined. The degree of fruit coloring was expressed using a color chart based on a scale of 0 (poorly colored) to 12 (fully colored). The sugar content was determined using a sugar refractometer. The acidity was expressed as titratable tartaric acid content. The dirt on a fruit surface was evaluated by a ratio of the surface area soiled whitish to the total surface area of the fruit on a scale of 1 to 5 (not soiled=1, slightly soiled=2, a little soiled=3, moderately soiled=4, much soiled=5). The phytotoxicity was evaluated on a scale of 1 to 5 (normal=1, slightly damaged=2, a little damaged=3, moderately damaged=4, much damaged=5).
The examinations were carried out in the same manner as in Application Example 64 except that the quality improvers of Examples 2 to 4, 6 to 7, 12, 14, 17 to 18, and Comparative Examples 1 to 4 were used instead of the quality improver of Example 1.

[3] = test system: apple tree (Orin); assay: reducing bitter pit and improving fruit quality, spray on apple tree; conditions: for Incidence of bitter pit: 50 fruits, sprayed four times; for Ground color: fruit skin, 5-point scale (best=5, worst=1); for Phytotoxicity: scale of 1 to 5; for Sugar content: sugar refractometer; for Acidity: titratable malic acid content
Protocol: as §1, with “bitter pit” for “fruit-cracking”, “an apple” for “a grape”, “(Orin).” for “(Pione).”, “apple” for “grape”, “4” for “8”, “June” for “July”
The evaluation was carried out on 50 randomly selected fruits. The incidence of bitter pit was expressed as a ratio of the number of fruits with bitter pit to the total number of fruits examined. The ground color of fruit skin was determined on a 5-point scale (best=5, worst=1). The sugar content was determined using a sugar refractometer. The acidity was expressed as titratable malic acid content. The phytotoxicity was evaluated on a scale of 1 to 5 (normal=1, slightly damaged=2, a little damaged=3, moderately damaged=4, much damaged=5).
The examinations were carried out in the same manner as in Application Example 22 except that the quality improvers of Examples 2 to 21 and Comparative Examples 1 to 4 were used instead of the quality improver of Example 1.

| SMILES | Ground color ([1]; polyvalent metal 0.030 wt. %) | Phytotoxicity ([1]; polyvalent metal 0.030 wt. %) | Seriously damaged fruit ([1]; polyvalent metal 0.030 wt. %) [%] | Sugar content ([1]; polyvalent metal 0.030 wt. %) | Water core index ([1]; polyvalent metal 0.030 wt. %) | Ground color ([1]; polyvalent metal 0.075 wt. %) | Phytotoxicity ([1]; polyvalent metal 0.075 wt. %) | Seriously damaged fruit ([1]; polyvalent metal 0.075 wt. %) [%] | Sugar content ([1]; polyvalent metal 0.075 wt. %) | Water core index ([1]; polyvalent metal 0.075 wt. %) | Acidity ([2]; polyvalent metal 0.030 wt. %) | Degree of fruit coloring ([2]; polyvalent metal 0.030 wt. %) | Number of fruit-cracking ([2]; polyvalent metal 0.030 wt. %) | Phytotoxicity ([2]; polyvalent metal 0.030 wt. %) | Sugar content ([2]; polyvalent metal 0.030 wt. %) | Acidity ([2]; polyvalent metal 0.075 wt. %) | Degree of fruit coloring ([2]; polyvalent metal 0.075 wt. %) | Number of fruit-cracking ([2]; polyvalent metal 0.075 wt. %) | Phytotoxicity ([2]; polyvalent metal 0.075 wt. %) | Sugar content ([2]; polyvalent metal 0.075 wt. %) | other results |
| --- | --- | --- | --- | --- | --- | --- | --- | --- | --- | --- | --- | --- | --- | --- | --- | --- | --- | --- | --- | --- | --- |
| [Ca+2].[Cl-].[Cl-] [calcium chloride] | 3.7 | 4 | 30.0 | 12.8 | 0.97 | 3.5 | 4 | 26.7 | 12.6 | 0.90 | 0.63 | 9.2 | 4.4 | 4 | 18.4 | 0.66 | 9.0 | 4.5 | 4 | 18.6 | Incidence of bitter pit ([3]; polyvalent metal 0.030 wt. %): 30.0%; Incidence of bitter pit ([3]; polyvalent metal 0.075 wt. %): 25.0%; Ground color ([3]; polyvalent metal 0.030 wt. %): 3.7; Ground color ([3]; polyvalent metal 0.075 wt. %): 3.9; Phytotoxicity ([3]; polyvalent metal 0.030 wt. %): 4; Phytotoxicity ([3]; polyvalent metal 0.075 wt. %): 4; Sugar content ([3]; polyvalent metal 0.030 wt. %): 14.1; Sugar content ([3]; polyvalent metal 0.075 wt. %): 14.2; Acidity ([3]; polyvalent metal 0.030 wt. %): 0.37; Acidity ([3]; polyvalent metal 0.075 wt. %): 0.35 |
| O=C[O-].O=C[O-].[Ca+2] [calcium formate] | 3.6 | 3 | 23.3 | 13.0 | 0.80 | 3.8 | 3 | 16.7 | 13.2 | 0.77 | 0.54 | 9.7 | 3.9 | 3 | 18.9 | 0.53 | 9.7 | 3.6 | 3 | 19.3 | Incidence of bitter pit ([3]; polyvalent metal 0.030 wt. %): 26.0%; Incidence of bitter pit ([3]; polyvalent metal 0.075 wt. %): 24.0%; Ground color ([3]; polyvalent metal 0.030 wt. %): 3.8; Ground color ([3]; polyvalent metal 0.075 wt. %): 3.8; Phytotoxicity ([3]; polyvalent metal 0.030 wt. %): 3; Phytotoxicity ([3]; polyvalent metal 0.075 wt. %): 3; Sugar content ([3]; polyvalent metal 0.030 wt. %): 14.5; Sugar content ([3]; polyvalent metal 0.075 wt. %): 14.9; Acidity ([3]; polyvalent metal 0.030 wt. %): 0.38; Acidity ([3]; polyvalent metal 0.075 wt. %): 0.30 |
